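Values below derive from 48-hour exposures of cells grown in 96-well plates, with endpoints linearly interpolated between the two concentrations bracketing the appropriate inhibition level. Abbreviation: GI50, concentration required for 50% inhibition of growth. TGI is the concentration that stops growth completely.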
Tests used:
Test in all cases: growth of human tumour cells (NCI), 48 h
[1] = system: T-47D breast
[2] = system: HOP-18 NSCLC
[3] = system: M19-MEL melanoma
[4] = system: SNB-78 CNS
[5] = system: XF 498 CNS
[6] = system: DLD-1 colon
[7] = system: RXF-631 renal
[8] = system: DMS 114 small cell lung
[9] = system: MDA-N

Structure (SMILES) | GI50 [1] | TGI [1] | TGI [3] | TGI [4] | further results
COC(=O)/C=C/c1cc(OC(C)=O)c2c(c1)C(C(=O)OC)C(c1ccc(OC(C)=O)c(OC(C)=O)c1)O2 (stereo not given) | 3.11 µM | > 76.8 µM | – | – | –
FC(F)(F)c1ccc2nc(NCc3ccccc3)c(-c3ccccc3)nc2c1 | – | – | > 100 µM | > 100 µM | TGI [2]: > 100 µM; TGI [5]: 43.5 µM
COc1ccc(Cl)cc1NC(=O)c1ccc(NC2=C(Cl)C(=O)N(Cc3ccccc3)C2=O)cc1 | > 100 µM | > 100 µM | – | – | –
C[N+](C)(C)CC(=O)N/N=C(/Cc1cc(=O)oc2cc(O)ccc12)C(=O)Nc1ccc(Cl)cc1 | – | – | > 100 µM | – | TGI [6]: > 100 µM; TGI [7]: > 100 µM; TGI [8]: > 100 µM
O=C(Nc1nc(-c2c[nH]c3ccccc23)cs1)c1n[nH]c(=O)c2ccccc12 | > 46.4 µM | > 96.2 µM | – | – | –
COc1c(C)c(OCC=C(C)C)cc(CO)c1CO | – | > 100 µM | – | – | TGI [9]: > 100 µM
COC(=O)c1c(C)cc(OC)c(C/C=C(\C)CCCc2coc(C=C(C)C)c2)c1OC | – | > 100 µM | – | – | TGI [9]: > 100 µM
CSC[C@H](NC(=O)COc1cccc2cnccc12)C(=O)NC(Cc1ccccc1)C(O)C(=O)N1CSC[C@H]1C(=O)NC(C)(C)C (stereo not given in full) | – | > 100 µM | – | – | TGI [9]: > 100 µM
CC(=O)N/C(=C\c1ccccc1/C=C(\NC(C)=O)c1nc2cc(C)c(C)cc2[nH]1)c1nc2cc(C)c(C)cc2[nH]1 | – | – | 85.8 µM | > 100 µM | TGI [6]: 56.5 µM; TGI [8]: 11.2 µM; TGI [5]: 32.9 µM
O=C1C=C(c2c(O)ccc3ccccc23)c2cc(O)ccc2C1=O | – | – | 9.68 µM | 42.5 µM | TGI [2]: 43.8 µM; TGI [6]: 37.6 µM; TGI [8]: 19.6 µM; TGI [5]: 23.3 µM
Cc1cc(C(=O)CSC(=S)SC(C)(C)C)ccc1Cl | – | – | – | – | TGI [9]: 36.8 µM
CCCN(CCC)c1c([N+](=O)[O-])cc(C(=O)N(CC)CC)cc1[N+](=O)[O-] | – | – | 47.8 µM | > 100 µM | TGI [6]: > 100 µM; TGI [8]: 42.8 µM
NCCCn1c2c(c3ccc([N+](=O)[O-])cc3c1=O)C(=O)c1cc(I)ccc1-2 | 0.0446 µM | 2.08 µM | – | – | –
O=C(O)c1ccc(CNCc2ccccc2)cc1 | – | > 100 µM | – | – | TGI [9]: > 100 µM
O=Cc1cc2c(cc1-c1cc3c(cc1C=O)OCO3)OCO2 | – | – | > 100 µM | > 100 µM | TGI [2]: > 100 µM; TGI [6]: > 100 µM; TGI [8]: > 100 µM
COc1cc(OC)c(OC)cc1/C=N/NC(=O)N/N=C/c1cc(OC)c(OC)cc1OC | – | – | > 100 µM | > 100 µM | TGI [2]: > 100 µM; TGI [8]: > 100 µM; TGI [5]: > 100 µM
c1ccc2c(c1)CCc1c(-c3ccncc3)n[nH]c1-2 | – | – | 72.8 µM | > 100 µM | TGI [6]: > 100 µM; TGI [8]: 51.7 µM; TGI [5]: 22.5 µM
COc1c2occc2c(N)c2ccc(=O)oc12 | – | > 100 µM | – | – | TGI [9]: > 100 µM
COc1ccc(CNc2c3ccccc3nc3ccccc23)cc1F | 4.39 µM | 21.5 µM | – | – | –
CNc1cc2oc(=O)cc(C)c2cc1C | – | > 100 µM | – | – | TGI [9]: > 100 µM
CCSc1nc(N=Cc2ccccc2O)c2cn[nH]c2n1 | 33.4 µM | > 100 µM | – | – | –
CNCCCNc1ccnc2cc(Cl)ccc12 | 25.7 µM | > 100 µM | – | – | –
O=c1[nH]c(O)c(C=Nc2ccc(-c3nc4ccccc4o3)cc2)c(=O)[nH]1 | 93.7 µM | > 100 µM | – | – | –
NC(=O)c1cc(I)ccc1NC(=O)/C=C/c1ccccc1 | 0.597 µM | > 65.7 µM | – | – | –
CN(C)CCN1CCC(Cc2ccccc2)CC1 | > 80 µM | > 80 µM | – | – | –
C=C(C)[C@@H]1CC[C@]2(CN)CC[C@]3(C)[C@H](CC[C@@H]4[C@@]5(C)CCCNC(C)(C)[C@@H]5CC[C@]43C)[C@@H]12 | 1.88 µM | 3.81 µM | – | – | –
COc1cc(/C=C2\CCCCC3=C2N=C2SC(C)=CN2C3c2cc(OC)c(OC)c(OC)c2)cc(OC)c1OC (stereo not given) | 0.566 µM | > 100 µM | – | – | –
C/C(=N\NC(N)=O)c1sc(-c2nc(C)c(/C(C)=N/NC(N)=O)s2)nc1C | – | – | > 100 µM | > 100 µM | TGI [2]: > 100 µM; TGI [6]: > 100 µM; TGI [5]: > 100 µM
COc1cc(C[P+](c2ccccc2)(c2ccccc2)c2ccccc2)cc(OC)c1OC | – | – | > 100 µM | > 100 µM | TGI [6]: > 100 µM; TGI [8]: > 100 µM; TGI [5]: > 100 µM
